Series [1] has as its target T1, reuptake of dopamine (DA) in synaptosomes (Rattus norvegicus, UniProt P23977).
T1 construct: in synaptosomes as described in WO 97/16451; from tissue
Put plainly: Inhibition of dopamine (DA) reuptake in synaptosomes. In kind it is biochemical. Particulars: 3H-DA, read-out: DA-uptake IC50. The text has this:
(§1) Compounds of the invention may be tested for their ability to inhibit reuptake of the monoamines dopamine, noradrenaline and serotonin in synaptosomes e.g. such as described in WO 97/30997. Based on the balanced activity observed in these tests the compound of the invention is considered useful for the treatment, prevention or alleviation of a disease or a disorder or a condition of a mammal, including a human, which disease, disorder or condition is responsive to inhibition of monoamine neurotransmitter re-uptake in the central nervous system.
(§2) A number of compounds were tested for their ability to inhibit the reuptake of the monoamine neurotransmitters dopamine (DA) noradrenaline (NA) and serotonine (5-HT) in synaptosomes as described in WO 97/16451.
(§3) The test values are given as IC50 (the concentration (μM) of the test substance which inhibits the specific binding of ^3H-DA, ^3H-NA, or ^3H-5-HT by 50%).

Series [2] addresses T2, reuptake of serotonine (5-HT) in synaptosomes (Rattus norvegicus, UniProt P31652).
T2 construct: in synaptosomes as described in WO 97/16451; from tissue
Put plainly: Inhibition of serotonine (5-HT) reuptake in synaptosomes. It is filed as biochemical.
Description: as §1, §2, §3

The target in series [3] is T3, reuptake of noradrenaline (NA) in synaptosomes (Rattus norvegicus, UniProt Q9WTR4).
T3 construct: in synaptosomes as described in WO 97/16451; from tissue
T3 sequence (Q9WTR4 1-597): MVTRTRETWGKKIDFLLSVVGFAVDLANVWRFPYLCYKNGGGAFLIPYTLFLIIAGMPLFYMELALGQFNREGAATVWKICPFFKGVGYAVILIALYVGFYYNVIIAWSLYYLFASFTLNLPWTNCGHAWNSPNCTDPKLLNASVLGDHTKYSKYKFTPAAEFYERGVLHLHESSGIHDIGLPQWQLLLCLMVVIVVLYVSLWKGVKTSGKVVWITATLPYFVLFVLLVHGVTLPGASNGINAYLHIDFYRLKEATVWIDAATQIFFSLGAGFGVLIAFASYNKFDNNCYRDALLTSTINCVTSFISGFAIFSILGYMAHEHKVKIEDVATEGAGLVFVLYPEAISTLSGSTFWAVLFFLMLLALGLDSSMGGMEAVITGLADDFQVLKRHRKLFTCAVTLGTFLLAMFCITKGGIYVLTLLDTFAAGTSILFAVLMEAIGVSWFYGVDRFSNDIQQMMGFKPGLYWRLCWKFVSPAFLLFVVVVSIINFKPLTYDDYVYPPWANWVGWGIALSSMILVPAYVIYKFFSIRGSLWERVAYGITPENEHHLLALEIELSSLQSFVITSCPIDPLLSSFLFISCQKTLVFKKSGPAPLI
Put plainly: Inhibition of noradrenaline (NA) reuptake in synaptosomes. It is filed as biochemical. Particulars: 3H-NA, read-out: NA-uptake IC50.
Description: as §1, §2, §3

[4] abbreviates: synaptosomes, 3H-5-HT, read-out: 5-HT-uptake IC50.

Molecules are shown by their SMILES. Read-outs that look alike come from different tables or passages of the source.

By melting point is commonly meant the temperature, or range, at which the solid turns liquid. Broadly, the IC50 is the midpoint of a concentration-inhibition curve.

T2 sequence (P31652 whole entry): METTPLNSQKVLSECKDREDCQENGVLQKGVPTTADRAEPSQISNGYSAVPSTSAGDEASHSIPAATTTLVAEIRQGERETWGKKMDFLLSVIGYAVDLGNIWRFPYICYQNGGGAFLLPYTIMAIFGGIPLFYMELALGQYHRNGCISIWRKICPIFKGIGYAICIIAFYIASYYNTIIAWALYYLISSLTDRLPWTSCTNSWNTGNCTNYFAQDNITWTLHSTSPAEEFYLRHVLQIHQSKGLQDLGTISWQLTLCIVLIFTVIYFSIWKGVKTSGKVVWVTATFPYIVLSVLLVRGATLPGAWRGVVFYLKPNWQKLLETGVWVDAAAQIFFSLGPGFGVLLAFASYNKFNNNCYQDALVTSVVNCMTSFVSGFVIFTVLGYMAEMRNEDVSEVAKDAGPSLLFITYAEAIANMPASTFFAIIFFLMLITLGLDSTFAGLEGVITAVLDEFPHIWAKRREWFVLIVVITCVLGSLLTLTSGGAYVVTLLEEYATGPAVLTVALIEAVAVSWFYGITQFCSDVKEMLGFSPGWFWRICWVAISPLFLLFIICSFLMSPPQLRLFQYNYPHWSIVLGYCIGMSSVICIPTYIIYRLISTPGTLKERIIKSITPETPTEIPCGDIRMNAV
T1 sequence (P23977 whole entry): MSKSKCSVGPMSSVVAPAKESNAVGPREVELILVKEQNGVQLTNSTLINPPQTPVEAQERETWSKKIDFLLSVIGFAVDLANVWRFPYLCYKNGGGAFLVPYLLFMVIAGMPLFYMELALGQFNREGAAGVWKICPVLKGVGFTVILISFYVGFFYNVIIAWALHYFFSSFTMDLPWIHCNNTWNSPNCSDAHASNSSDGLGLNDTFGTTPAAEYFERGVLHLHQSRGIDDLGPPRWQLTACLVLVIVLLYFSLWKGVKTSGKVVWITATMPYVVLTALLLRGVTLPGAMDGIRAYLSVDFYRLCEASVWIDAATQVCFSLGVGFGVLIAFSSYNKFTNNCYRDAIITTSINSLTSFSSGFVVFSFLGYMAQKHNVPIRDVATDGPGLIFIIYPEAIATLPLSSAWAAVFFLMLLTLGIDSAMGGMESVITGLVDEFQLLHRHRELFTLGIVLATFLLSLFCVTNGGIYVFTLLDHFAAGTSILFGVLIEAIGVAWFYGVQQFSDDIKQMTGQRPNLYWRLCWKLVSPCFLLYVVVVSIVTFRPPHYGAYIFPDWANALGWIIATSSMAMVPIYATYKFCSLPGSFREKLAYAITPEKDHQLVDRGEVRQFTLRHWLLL

Take `C1=C(c2cc3ccccc3o2)CCC2(C1)CCNCC2.O=C(O)C(F)(F)F`: the melting point was 215.7 to 217.3 °C. Compound `CN1CCC2(CC=C(c3cc4ccccc4o3)CC2)CC1.O=C(O)/C=C/C(=O)O` displayed a melting point of 224.2 to 226.1 °C. Regarding `Clc1ccc(C2=CCC3(CCNCC3)CC2)cc1`, the melting point lay within 104.2 to 107.1 °C. In the case of `C1=C(c2cc3ccccc3s2)CCC2(C1)CCNCC2` [2nd compound of method A, 9-Benzo[b]thiophen-2-yl-3-aza-spiro[5.5]undec-8-ene], the melting point was 107.3 to 110.2 °C. The IC50 in series [1] was 1200 nM. The IC50 in series [2] (setting [4]) came to 20 nM. In series [3], the 50% inhibitory concentration (IC50) came to 580 nM. In the case of `Brc1cccc(C2=CCC3(CCNCC3)CC2)n1` [2nd last compound of method A, 9-(6-Bromo-pyridin-2-yl)-3-aza-spiro[5.5]undec-8-ene], the melting point was 161.3 to 162.8 °C. For the same compound, the half-maximal inhibitory concentration (IC50) in series [1] stood at 2000 nM. Moreover, in series [2], the IC50 worked out at 18 nM. For the same compound, in series [3], the IC50 came out at 1000 nM. Consider `COc1ccc2cc(C3=CCC4(CCNCC4)CC3)ccc2c1` [4th compound of method A, 9-(6-Methoxy-naphthalen-2-yl)-3-aza-spiro[5.5]undec-8-ene], for which the melting point fell in the range of 146.9 to 149.5 °C. Further, in series [1], the 50% inhibitory concentration (IC50) was determined as 38 nM. Also, in series [2] (setting [4]), the 50% inhibitory concentration (IC50) was 16 nM. Also, the half-maximal inhibitory concentration (IC50) in series [3] is 120 nM. In turn, `COc1cc(C2=CCC3(CCNCC3)CC2)ccc1Cl` [9-(4-Chloro-3-methoxy-phenyl)-3-aza-spiro[5.5]undec-8-ene] returned a melting point of 182 to 185 °C. `COc1ccc2cc(C3=CCC4(CC3)CCN(C)CC4)ccc2c1` [9-(6-Methoxy-naphthalen-2-yl)-3-methyl-3-aza-spiro[5.5]undec-8-ene] gave a melting point of 146.9 to 149.5 °C.

Regarding `CN1CCC2(CC=C(c3cc4ccccc4s3)CC2)CC1` [9-Benzo[b]thiophen-2-yl-3-methyl-3-aza-spiro[5.5]undec-8-ene], the melting point is 89.7 to 91.2 °C. The compound `C1=C(c2ccc3ccccc3c2)CCC2(C1)CCNCC2` [9-Naphthalen-2-yl-3-aza-spiro[5.5]undec-8-ene] had a melting point of 137.1 to 141.3 °C.
